Measurements reported in patent US20150374734A1, “ACTIVATION OF iNKT CELLS” (INSERM (INSTITUT NATIONAL DE LA SANTÉ ET DE LA RECHERCHE …, priority 2013, published 2015).

Columns and labels:
[1] = test system: splenic iNKT cells; assay: Primary iNKT cell activation in vivo (intracellular IFN-γ, serum IL-4); design: species or system mouse
Description: (§1) FIG. 1: DCs are crucial for iNKT cell primo-activation and for the prevention of iNKT cell anergy. (A) Transgenic CD11c.DTR mice were injected with PBS or DT 24 h before α-GalCer inoculation (100 ng/mouse). (B) Spleen DCs were sorted on the basis of CD11c expression and sensitized for 2 h with α-GalCer (25 ng/ml). Mice were then injected with α-GalCer-sensitized DCs or free α-GalCer (100 ng/mouse). A and B, Mice were euthanized 3 h after α-GalCer (A and B) or DC/α-GalCer (B) inoculation (primo-activation, grey) or received a second intravenous injection of α-GalCer (100 ng/mouse) 7 days later (recall response, black). In these later groups, animals were sacrificed 3 h after α-GalCer challenge. Splenic iNKT cells were then analysed for intracellular IFN-γ production. A representative experiment out of two (A) or three (B) is shown (mean±SD) (n=4). ** p<0.01, * p<0.05 (unpaired Student's t test).
FIG. 4: Encapsulation of α-GalCer in NP/DEC205 efficiently activates iNKT cells in vivo. Mice were intravenously injected with PBS alone or α-GalCer either in a free soluble form or encapsulated into NP/DEC205 or NP/IgG (5 ng α-GalCer/mouse). […] Production of IL-4 in the sera was quantified by ELISA (right panel) (n=3-8). […] The expression of CD86 (expressed as MFI) by DCs (CD11c^hi) is depicted. […]
FIG. 5: Targeting α-GalCer into CD8α^+ DCs prevents iNKT cell anergy in vivo. […] Production of IL-4 in the sera was quantified by ELISA (right panel). […]
Cells were resuspended in the appropriate combination of Abs to allow identification of DC subsets (anti-CD11c, anti-CD8α, anti-CD11b), iNKT cells (anti-TCRβ, PBS-57-loaded CD1d tetramer), NK cells (anti-CD3ε, anti-NK1.1) or γδ T lymphocytes (anti-TCRγδ, anti-CD3ε). […] Expression of intracellular IFN-γ was analysed as previously described.^32 To measure Cy5-α-GalCer incorporation by splenic DC subsets, mice were intravenously injected with Cy5-conjugated α-GalCer (20 μg) and 2 h later, incorporation of Cy5 by spleen DC subsets was analysed by flow cytometry. […]

[2] = test system: splenic iNKT cells; assay: iNKT cell recall response / anergy in vivo; design: species or system mouse
Description: as §1
FIG. 5: Targeting α-GalCer into CD8α^+ DCs prevents iNKT cell anergy in vivo. Mice were intravenously injected with PBS, free α-GalCer (100 ng/mouse) or α-GalCer encapsulated into NP/DEC205 or NP/IgG (5 ng/mouse). A, After 3 h, mice were bled and splenic iNKT cells were screened for intracellular IFN-γ production. The average percentages±SD of iNKT cells positive for IFN-γ are represented (left panel). Production of IL-4 in the sera was quantified by ELISA (right panel). B, Mice received, 7 days later, a second injection of free α-GalCer ([…]) and spleen iNKT cells were screened for intracellular IFN-γ production 3 h later. […] A representative experiment out of two is shown (mean±SD) (n=3) C, The percentage±SD of iNKT cells expressing PD-1 is represented (7 days after α-GalCer stimulation). A representative experiment out of two is shown (n=4). ** p<0.01, * p<0.05 (unpaired Student's t test).
Mice were administrated intravenously with 200 μl of PBS containing 5 ng of free (or 100 ng as a control) or encapsulated α-GalCer. […] Splenic iNKT cells were analysed for intracellular IFN-γ expression and IFN-γ and IL-4 concentrations in the sera were determined by ELISA.

[3] = test system: sorted hepatic NKT cells; assay: Ex vivo stimulatory capacity of in vivo α-GalCer-loaded DC subsets on NKT cells; format: cell-based, mouse; conditions: DCs sorted 2 h after i.v. α-GalCer 2 μg; 48 h co-culture
Description: (§2) FIG. 2: CD8α^+ and CD8α^− DCs differ in their ability to activate iNKT cells. A, B and C, Mice were intravenously injected with α-GalCer (2 μg). Two hours later, splenic CD8α^+ and CD8α^− DCs were sorted on the basis of CD11c, CD11b and CD8 expression (A) and co-cultured with sorted NKT cells (B) or with the α-GalCer-responsive IL-2-producing iNKT cell hybridoma DN32.D3 as a readout of Ag presentation (C). B and C, Cytokine production was quantified by ELISA. Results represent the mean±SD of four experiments. D, CD1d expression on CD8α^+ and CD8α^− DCs was assessed by flow cytometry. The staining with the isotype control was identical on both DC subsets. […] E, Recipient mice were intravenously injected with Cy5-conjugated, or unconjugated as a control, α-GalCer (20 μg) and Cy5 incorporation by CD8α^+ DCs (grey) and CD8α^− DCs (black) was analyzed by flow cytometry 2 h later. […]
(§3) To assess the capacity of DCs to bind/uptake PLGA-based NPs, bone marrow-derived DCs (BM-DCs) (5×10^5 cells/well)^32 or spleen mononuclear cells (MNCs) (1×10^6 cells/well) were exposed with AlexaFluor647-labelled particles (10 μg/ml and 100 μg/ml, respectively) during 2 h at 37° C. After extensive washes, BM-DC (CD11c^+ DEC205^+/−) and spleen CD8α^+ and CD8α^− DCs were analysed by flow cytometry. […] Production of IFN-γ, IL-4 and IL-2 was measured in the culture supernatants by ELISA (R&D systems).

[4] = test system: iNKT cell hybridoma DN32.D3; assay: Ex vivo stimulatory capacity of in vivo α-GalCer-loaded DC subsets on DN32.D3; format: cell-based, mouse; conditions: DCs sorted 2 h after i.v. α-GalCer 2 μg; 24 h co-culture
Description: as §2, §3

## CCCCCCCCCCCCCCCCCCCCCCCCCC(=O)N[C@@H](CO[C@H]1O[C@H](CO)[C@H](O)[C@H](O)[C@H]1O)[C@H](O)[C@H](O)CCCCCCCCCCCCCC [α-GalCer, (2S,3S,4R)-1-O-(alpha-D-galactosyl)-N-hexacosanoyl-2-amino-1,3,4-octadecanetriol]
[1]; CD11c.DTR mice, DT 24 h before, α-GalCer 100 ng/mouse
  Primary iNKT cell activation after DC depletion: strongly lowered the extent of primary iNKT cell activation
[1]; NP/DEC205 5 ng/mouse, free α-GalCer 100 ng/mouse, 3 h
  Primary iNKT cell activation, low dose in NP/DEC205 vs high dose free: comparable primary iNKT cell activation
[1]; free 100 ng/mouse, DCs sensitized 2 h with 25 ng/ml, 3 h
  Primary iNKT cell activation, free α-GalCer vs α-GalCer-sensitized DCs: triggered a similar primary activation of iNKT cells
[2]; 7 days after α-GalCer stimulation, listed as free α-GalCer
  PD-1 expression on iNKT cells: induced enhanced PD-1 expression on iNKT cells
[2]; CD11c.DTR mice treated with DT, α-GalCer 100 ng/mouse, rechallenge day 7
  Recall response when DCs lacking at primary stimulation: totally blunted
[2]; second injection of free α-GalCer 100 ng 7 days later, 3 h
  iNKT cell anergy (IFN-γ recall response): induced the expected iNKT cell anergy
[3]
  Secretion of IFN-γ and IL-4 by NKT cells co-cultured with DC subsets: CD8α^+ DCs promoted a much stronger secretion of IFN-γ and IL-4
[4]
  IL-2 production by DN32.D3 co-cultured with DC subsets: CD8α^+ DCs triggered a higher IL-2 production by the iNKT cell hybridoma DN32.D3
